Reference: publication PMC8786148, “The effects of magainin 2-derived and rationally designed antimicrobial peptides on Mycoplasma pneumoniae” (PLoS ONE, 2022)
Marks after values point to notes of the source that are not given here.

Tests used:
[1] = tested on: Mycoplasma pneumoniae M129-B7; assay: Colorimetric and biofilm assays, strain M129-B7; format: cell-based
[2] = tested on: Mycoplasma pneumoniae FH; assay: Killing assay, strain FH; conditions: for CFU/mL after treatment, killing assay: 3 d at 37°C; for CFU/mL after treatment, killing assay / Cell numbers (CFU/mL) after treatment with antimicrobial peptides, killing assay: triplicate, mean; for Killing assay result compared with saline / Cell numbers (CFU/mL) after treatment with antimicrobial peptides, killing assay: 30 μmol/L AMP, 3 days; for Killing assay result compared with saline: Welch's t test; for Cell numbers (CFU/mL) after treatment with antimicrobial peptides, killing assay: saline 3.59×10^6
[3] = tested on: Mycoplasma pneumoniae Bru; assay: Killing assay, strain Bru; conditions: 3 days; for Titre (CFU/mL), killing assay: initial 10^6 CFU/mL, triplicate, mean
[4] = tested on: Mycoplasma pneumoniae Mac; assay: Killing assay, strain Mac; conditions: 3 days; for Titre (CFU/mL), killing assay: initial 10^6 CFU/mL, triplicate, mean
[5] = tested on: Mycoplasma pneumoniae M52; assay: Killing assay, strain M52; conditions: 3 days; for Titre (CFU/mL), killing assay: initial 10^6 CFU/mL, triplicate, mean
[6] = tested on: Mycoplasma pneumoniae M129-B7; assay: Killing assay, strain M129-B7; conditions: 3 days; for Titre (CFU/mL), killing assay: initial 10^6 CFU/mL, triplicate, mean
[7] = tested on: Mycoplasma pneumoniae Bru; assay: Colorimetric and biofilm assays, strain Bru
[8] = tested on: Mycoplasma pneumoniae Mac; assay: Colorimetric and biofilm assays, strain Mac
[9] = tested on: Mycoplasma pneumoniae M52; assay: Colorimetric and biofilm assays, strain M52
[10] = tested on: Mycoplasma pneumoniae FH; assay: Colorimetric assay (absorbance at 560 nm), strain FH; conditions: initial 10^5 CFU/mL
[11] = tested on: Mycoplasma pneumoniae FH; assay: Biofilm assay (crystal violet, absorbance at 550 nm), strain FH; conditions: initial 10^5 CFU/mL, 0% CO2, 6-8 days at 37°C; for Concentration with statistically significant effect in the biofilm assay: p < 0.005, Shirley-Williams test
[12] = tested on: M. pneumoniae strains FH, M52, Mac, Bru, and M129-B7; assay: Propidium iodide (PI) uptake assay, membrane disruption; format: cell-based, Mycoplasma pneumoniae; conditions: five strains; 10 μmol/L AMP; PI 5 μg/mL in PBS; read every 2 min up to 20 min; triplicate
Description: We performed the PI uptake assays based on the previously described method with modification for M. pneumoniae. M. pneumoniae strains FH, M52, Mac, Bru, and M129-B7 were cultured as described above. Briefly, the 90 mL culture was done in PPLO-based medium for 6 days to observe the medium color change from red to yellow. The mycoplasma in the culture medium was centrifuged at 11,740g for 30 min at 4°C, and the precipitation was suspended in 20 mL phosphate buffered saline (PBS) by passing through a 60 mm-length 25-gauge needle (Top Corporation, Tokyo, Japan) three times. The suspension was centrifuged again at 11,740g for 30 min at 4°C, and 2.25 mL PBS was added to the precipitation. The 2× mycoplasma suspension was prepared by passing through a 60 mm-length 25-gauge needle five times. When using heat-killed M. pneumoniae (HKMp), the 2× suspension was heated at 95°C for 10 min. The 2× PI assay reaction mix based on PBS containing 20 μmol/L of an antimicrobial peptide or saline, and 10 μg/mL PI (Dojindo, Tokyo, Japan). Each assay was performed with a 96-well black flat-bottomed plate (PerkinElmer, Waltham, MA, USA) using a final cell volume of 100 μL prepared by mixing 2× mycoplasma suspension and 2× PI assay reaction mix at 1:1 in volume ratio. The intercalation fluorescence of PI was measured by using an Infinite 200 Pro F Plex microplate reader (Tecan, Zürich, Switzerland) every 2 min, with an excitation filter at 535 nm (half width: 25 nm) and an emission filter at 620 nm (half width: 20 nm). The averages and standard deviations of the fluorescent intensities was calculated, and normalised by an average fluorescence between 10 and 20 min of HKMp as 100% relative fluorescence, and by a minimum average fluorescence between 0 and 20 min of whole data as 0% relative fluorescence.

[13] = tested on: Staphylococcus aureus; set-up: method as in PMID 28789896, PMID 31303986, PMID 33369262; conditions: previously reported; cited from earlier work
[14] = tested on: Staphylococcus epidermidis; set-up: method as in PMID 28789896, PMID 31303986, PMID 33369262; conditions: previously reported; cited from earlier work
[15] = tested on: Escherichia coli; set-up: method as in PMID 28789896, PMID 31303986, PMID 33369262; conditions: previously reported; cited from earlier work
[16] = tested on: Pseudomonas aeruginosa; set-up: method as in PMID 28789896, PMID 31303986, PMID 33369262; conditions: previously reported; cited from earlier work
[17] = tested on: four strains of M. pneumoniae; assay: Biofilm assay, four strains taken together; conditions: four strains (Bru, M129-B7, Mac, M52); inferred from enhanced biofilm production below 30 μmol/L
[18] = tested on: Histophilus somni; set-up: method as in PMID 29771981; conditions: bovine pathogen; cited from earlier work
[19] = tested on: Pasteurella multocida; set-up: method as in PMID 29771981; conditions: bovine pathogen; cited from earlier work
[20] = tested on: Mannheimia haemolytica; set-up: method as in PMID 29771981; conditions: bovine pathogen; cited from earlier work
[21] = tested on: M. bovis; conditions: cited from earlier work
[22] = previously reported; cited from earlier work
[23] = colorimetric and biofilm assays
[24] = up to 30 μmol/L, Shirley-Williams test

Molecule: C[C@@H]1CN(c2c(F)c(N)c3c(=O)c(C(=O)O)cn(C4CC4)c3c2F)C[C@H](C)N1 [Sparfloxacin]
- Concentration that completely attenuated the growth ([1]; strain M129-B7, colorimetric and biofilm assays): 0.25 µg/mL
- Change in CFU, killing assay with 1 h incubation ([2]; 1 h treatment, SPFX 0.0625-0.25 μg/mL, AMPs 30 μmol/L, S3 Fig): no change in the CFU values
- Concentration with significant difference in CFU, killing assay ([2]; initial 10^6 CFU/mL, 3 d incubation, p < 0.005): above 0.0625 μg/mL
- CFU/mL after treatment, killing assay ([2]; sparfloxacin 0.0156 μg/mL, initial 10^6 CFU/mL): 6.57×10^6 CFU/mL
- CFU/mL after treatment, killing assay ([2]; sparfloxacin 0.0313 μg/mL, initial 10^6 CFU/mL): 2.33×10^6 CFU/mL
- CFU/mL after treatment, killing assay ([2]; sparfloxacin 0.0625 μg/mL, initial 10^6 CFU/mL): 1.39×10^5 ^a CFU/mL
- CFU/mL after treatment, killing assay ([2]; sparfloxacin 0.125 μg/mL, initial 10^6 CFU/mL): 1.30×10^4 ^a CFU/mL
- CFU/mL after treatment, killing assay ([2]; sparfloxacin 0.25 μg/mL, initial 10^6 CFU/mL): 5.50×10^3 ^a CFU/mL
- Concentration with statistically significant result, killing assay ([3]; p < 0.005): 0.0625 µg/mL
- Titre (CFU/mL), killing assay ([3]; sparfloxacin 0.0156 μg/mL): 2.52×10^6 CFU/mL
- Titre (CFU/mL), killing assay ([3]; sparfloxacin 0.0313 μg/mL): 1.80×10^6 CFU/mL
- Titre (CFU/mL), killing assay ([3]; sparfloxacin 0.0625 μg/mL): 8.41×10^5 ^a CFU/mL
- Titre (CFU/mL), killing assay ([3]; sparfloxacin 0.125 μg/mL): 1.52×10^5 ^a CFU/mL
- Titre (CFU/mL), killing assay ([3]; sparfloxacin 0.25 μg/mL): 1.81×10^4 ^a CFU/mL
- Concentration with statistically significant result, killing assay ([4]; p < 0.005): 0.0625 µg/mL
- Titre (CFU/mL), killing assay ([4]; sparfloxacin 0.0156 μg/mL): 2.66×10^6 CFU/mL
- Titre (CFU/mL), killing assay ([4]; sparfloxacin 0.0313 μg/mL): 1.86×10^6 CFU/mL
- Titre (CFU/mL), killing assay ([4]; sparfloxacin 0.0625 μg/mL): 3.88×10^5 ^a CFU/mL
- Titre (CFU/mL), killing assay ([4]; sparfloxacin 0.125 μg/mL): 2.17×10^4 ^a CFU/mL
- Titre (CFU/mL), killing assay ([4]; sparfloxacin 0.25 μg/mL): 2.90×10^3 ^a CFU/mL
- Concentration with statistically significant result, killing assay ([5]; p < 0.005): 0.0625 µg/mL
- Titre (CFU/mL), killing assay ([5]; sparfloxacin 0.0156 μg/mL): 2.95×10^6 CFU/mL
- Titre (CFU/mL), killing assay ([5]; sparfloxacin 0.0313 μg/mL): 2.02×10^6 CFU/mL
- Titre (CFU/mL), killing assay ([5]; sparfloxacin 0.0625 μg/mL): 8.00×10^5 ^a CFU/mL
- Titre (CFU/mL), killing assay ([5]; sparfloxacin 0.125 μg/mL): 1.99×10^5 ^a CFU/mL
- Titre (CFU/mL), killing assay ([5]; sparfloxacin 0.25 μg/mL): 3.24×10^4 ^a CFU/mL
- Concentration with statistically significant result, killing assay ([6]; p < 0.005): 0.0625 µg/mL
- Titre (CFU/mL), killing assay ([6]; sparfloxacin 0.0156 μg/mL): 3.57×10^6 CFU/mL
- Titre (CFU/mL), killing assay ([6]; sparfloxacin 0.0313 μg/mL): 2.26×10^6 CFU/mL
- Titre (CFU/mL), killing assay ([6]; sparfloxacin 0.0625 μg/mL): 8.73×10^5 ^a CFU/mL
- Titre (CFU/mL), killing assay ([6]; sparfloxacin 0.125 μg/mL): 1.31×10^5 ^a CFU/mL
- Titre (CFU/mL), killing assay ([6]; sparfloxacin 0.25 μg/mL): 1.12×10^4 ^a CFU/mL
- Concentration that completely attenuated the growth [7, 23]: 0.25 µg/mL
- Concentration that completely attenuated the growth [8, 23]: 0.25 µg/mL
- Concentration that completely attenuated the growth [9, 23]: 0.25 µg/mL
- Concentration giving complete repression of the growth, colorimetric assay ([10]; 0% CO2, 6-8 days at 37°C, absorbance 560 nm): higher than 0.0625 μg/mL
- Concentration giving complete repression of the growth, biofilm assay ([11]; crystal violet, absorbance 550 nm): > 0.25 µg/mL

Molecule: H-KKKKKKKKKGGGLLALLALLA-NH2 [Block]
- Biofilm formation at 16 μmol/L ([1]; strain M129-B7, biofilm assay, 16 μmol/L): enhancement of biofilm formation
- Effect in the biofilm assay ([1]; strain M129-B7, up to 30 μmol/L, Shirley-Williams test): no statistically significant effect
- Biofilm amount at 30 μmol/L ([1]; strain printed B129-B7, biofilm assay, 30 μmol/L): no effect
- PI fluorescence compared with live Mp without peptide [12]: highest fluorescence
- MIC, Gram-positive, S. a. [13]: 12.5 µM
- MIC, Gram-positive, S. e [14]: 6.25 µM
- MIC, Gram-negative, E. c. [15]: 6.25 µM
- MIC, Gram-negative, P. a. [16]: 6.25 µM
- Killing assay result compared with saline ([2]; p < 0.005): significant difference
- Cell numbers (CFU/mL) after treatment with antimicrobial peptides, killing assay ([2]; initial 10^6 CFU/mL): 5.91×10^5 CFU/mL
- Titre (CFU/mL), killing assay ([3]; AMP 30 μmol/L, saline 3.48×10^6): 2.32×10^5 ^b CFU/mL
- Titre (CFU/mL), killing assay ([4]; AMP 30 μmol/L, saline 4.19×10^6): 4.30×10^5 ^b CFU/mL
- Titre (CFU/mL), killing assay ([5]; AMP 30 μmol/L, saline 3.62×10^6): 3.89×10^5 ^b CFU/mL
- Titre (CFU/mL), killing assay ([6]; AMP 30 μmol/L, saline 3.79×10^6): 4.84×10^5 ^b CFU/mL
- Concentration of anti-Mp effect indicated by the biofilm assay [17]: > 30 µmol/L
- Biofilm formation at 16 μmol/L ([7]; biofilm assay, 16 μmol/L): enhancement of biofilm formation
- Biofilm amount at 30 μmol/L ([7]; biofilm assay, 30 μmol/L): slight drop in the biofilm amount
- Effect in the biofilm assay [7, 24]: no statistically significant effect
- Biofilm formation at 16 μmol/L ([8]; biofilm assay, 16 μmol/L): enhancement of biofilm formation
- Biofilm amount at 30 μmol/L ([8]; biofilm assay, 30 μmol/L): slight drop in the biofilm amount
- Effect in the biofilm assay [8, 24]: no statistically significant effect
- Biofilm formation at 16 μmol/L ([9]; biofilm assay, 16 μmol/L): enhancement of biofilm formation
- Biofilm amount at 30 μmol/L ([9]; biofilm assay, 30 μmol/L): no effect
- Effect in the biofilm assay [9, 24]: no statistically significant effect
- Concentration with statistically significant effect in the biofilm assay [11]: 30 µmol/L

Molecule: H-TVIEVASKMCSKMRLLKGLCKSITKRFLRR-NH2 [NK2A, reference compound]
- PI fluorescence compared with live Mp without peptide [12]: the PI fluorescence arose
- Effective concentration against Histophilus somni [18]: 5 µmol/L
- Effective concentration against Pasteurella multocida [19]: 5 µmol/L
- Effective concentration against Mannheimia haemolytica [20]: 5 µmol/L
- Effective concentration against M. bovis [21]: 20 µmol/L
- Haemolysis (concentration with haemolytic effect) [22]: 5 µmol/L
- Killing assay result compared with saline ([2]; p < 0.005): limited influence on the growth
- Cell numbers (CFU/mL) after treatment with antimicrobial peptides, killing assay ([2]; initial 10^6 CFU/mL): 2.87×10^6 CFU/mL
- Effect in the colorimetric assay ([10]; 0% CO2, up to 30 μmol/L): no difference
- Concentration with statistically significant effect in the biofilm assay [11]: 30 µmol/L
